Assay results: article PMC8422859, “A Novel Oral Arginase 1/2 Inhibitor Enhances the Antitumor Effect of PD-1 Inhibition in Murine Experimental Gliomas by Altering the Immunosuppressive Environment” (Frontiers in Oncology, 2021)

Assays:
plasma cytokines = experiment: Plasma cytokine analysis (Milliplex/MAGPIX); format: in vivo, mouse; conditions: blood collected 2 h after last administration of OAT-1746
Procedure: Measurement of pro- and anti-inflammatory cytokines was performed in blood from control and treated animals. Blood was quickly collected to EDTA containing tubes before perfusion and centrifuged (10,000 × g) for 10 min at room temperature. The plasma was collected and stored at -80°C. The levels of cytokines were measured using the Milliplex Kit (Merk-Millipore, Germany) according to the protocol. Cytokine levels were determined using the MAGPIX Multiplexing Instrument (Luminex, TX, USA) with XPonent software and analyzed with Milliplex Analyst 5.1 software. Results were expressed as pg/mL for each cytokine.

[1] = system: U87-MG human glioma cells; experiment: MTT viability assay, U87-MG; format: cell-based; conditions: 24 h
Procedure: (§1) Cell viability was assessed using MTT metabolism assay (U87 and BV2 cells) or MTS CellTiter 96® AQueous One Solution Cell Proliferation Assay (Promega) for the primary murine microglia cultures. Cells were cultured either in 96-well plates (U87 at density of 1×10^4) or 24-well plates (BV2 at density of 4×10^4 and primary microglia 8×10^4) with the indicated concentrations of the inhibitor or H2O (vehicle) for 24 h. MTT solution (Sigma Aldrich) was added to each well to a final concentration of 0.5 mg/mL. After 1 h of incubation at 37°C, water-insoluble dark blue formazan crystals were dissolved in DMSO. Optical densities (OD) were measured at 570 and 620 nm using a scanning multiwell spectrophotometer. The MTT assay was performed according to the manufacturer’s protocol. All measurements were carried out on three independent cell passages, in triplicates.

non-CNS tumor models = conditions: cited from earlier work
BV2 microglial cells = experiment: MTT viability assay, BV2; format: cell-based, mouse; conditions: 24 h, concentrations up to 1000 µM
Procedure: as §1

primary murine microglia = experiment: Viability assay, primary microglia; format: cell-based, mouse; conditions: 24 h, concentrations up to 1000 µM
Procedure: as §1

[2] = system: L-arginine (substrate of arginase); experiment: L-arginine concentration in brain and plasma by LC-MS; format: in vivo, mouse; conditions: GL261-bearing mice, 50 mg/kg oral twice a day, day 14, 2 h after last dose
Procedure: (§2) Blood plasma, as well as the brain samples (from control and treated animals), were prepared for liquid chromatography coupled with mass spectrometry (LC-MS) by homogenization in 5% trichloroacetic acid (TCA) and the concentration of L-arginine – the substrate of arginase – was determined. In the urea cycle, arginase cleaves arginine to produce urea and ornithine. Ornithine reacts with carbamoyl phosphate to form citrulline. The brain homogenates prepared for arginine measurements, as well as plasma samples were also analyzed by LC-MS to determine the concentration of the drug, which was administered to animals 2 h before the euthanasia.

recombinant human ARG1 = biological target: T1, recombinant human ARG1 (Homo sapiens, UniProt P05089); experiment: Recombinant arginase activity assay, hARG1; format: biochemical; conditions: 1 h at 37°C, pH 7.4, 10 mM L-arginine, urea detection; read-out: Inhibition of recombinant hARG1: IC50
T1 construct: made in house; host or cells: E. coli
T1 sequence (P05089 1-322): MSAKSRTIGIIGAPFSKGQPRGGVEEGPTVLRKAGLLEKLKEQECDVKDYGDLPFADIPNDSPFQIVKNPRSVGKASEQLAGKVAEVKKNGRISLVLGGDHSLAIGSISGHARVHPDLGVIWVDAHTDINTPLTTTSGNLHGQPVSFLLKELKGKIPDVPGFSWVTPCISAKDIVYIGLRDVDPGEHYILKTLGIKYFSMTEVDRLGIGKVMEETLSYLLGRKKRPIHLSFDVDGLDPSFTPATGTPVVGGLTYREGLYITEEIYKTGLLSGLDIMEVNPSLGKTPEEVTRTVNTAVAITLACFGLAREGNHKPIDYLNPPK
Procedure: (§3) The inhibitory activity towards hARG1 and hARG2 enzymes was assessed using recombinant enzymes biosynthesized using a prokaryotic expression system (E. coli) and purified by fast protein liquid chromatography (FPLC). Briefly, recombinant enzymes were incubated with the tested compounds for 1 h at 37°C in the reaction buffer (100 mM sodium phosphate buffer, 130 mM NaCl, 1 mg/mL BSA, pH 7.4) containing substrate (10 mM L-arginine hydrochloride) and cofactor (200 µM MnCl2). The assay is based on the detection of urea, which is generated during the conversion of L-arginine into L-ornithine catalyzed by arginases. To visualize the product, we adding a mixture of reagent A (4 mM oPA, 50 mM boric acid, 1 M sulfuric acid, 0.03% Brij-35) and reagent B (4 mM NED, 50 mM boric acid, 1 M sulfuric acid, 0.03% Brij-35) in equal proportions. The absorbance was measured at 515 nm. The urea production in the absence of any tested compound was considered as maximal enzyme activity. The absorbance in the absence of arginase (background) was considered as zero activity. Two reference compounds OAT-81 (ABH, no. 222638-65-5) and OAT-90 (2-amino-6-borono-2-(2-(3-(2,4-dichlorophenyl)propyloamino)ethyl) hexanoic acid, and two novel inhibitors OAT-1617 and OAT-1746 (the last three synthesized at OncoArendi Therapeutics) were tested. Normalized values were analyzed using GraphPad Prism 7.0 software and the IC50 values were determined.

[3] = Drug concentration in brain by LC-MS; format: in vivo, mouse; conditions: GL261-bearing mice, 50 mg/kg oral twice a day, 14 days, 2 h after last dose
Procedure: as §2

recombinant human ARG2 = biological target: T2, recombinant human ARG2 (Homo sapiens, UniProt P78540); experiment: Recombinant arginase activity assay, hARG2; format: biochemical; conditions: 1 h at 37°C, pH 7.4, 10 mM L-arginine, urea detection; read-out: Inhibition of recombinant hARG2: IC50
T2 construct: made in house; host or cells: E. coli
T2 sequence (P78540 23-354): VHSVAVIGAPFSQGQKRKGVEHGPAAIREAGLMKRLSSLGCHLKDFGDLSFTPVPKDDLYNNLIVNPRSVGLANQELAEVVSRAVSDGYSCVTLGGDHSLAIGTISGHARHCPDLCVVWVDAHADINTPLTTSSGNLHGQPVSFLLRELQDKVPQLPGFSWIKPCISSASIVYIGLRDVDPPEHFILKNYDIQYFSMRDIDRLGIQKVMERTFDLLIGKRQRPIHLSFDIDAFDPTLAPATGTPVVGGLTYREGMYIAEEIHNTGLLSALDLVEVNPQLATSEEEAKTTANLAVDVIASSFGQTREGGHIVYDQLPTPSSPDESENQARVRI
Procedure: as §3

Compound: CN(C)C[C@@H]1CC[C@@H](CCB(O)O)C[C@]1(N)C(=O)O [OAT-1746]
- plasma levels of CCL2 (plasma cytokines): higher levels
- plasma levels of CCL5 (plasma cytokines): reduced
- reduction of the cell viability in U87-MG glioma cells ([1]; 1 mM): 20%
- viability of U87-MG cells (toxicity) ([1]; concentrations up to 1000 µM): a decrease in the viability of U87-MG cells was observed at the highest concentration
- antitumor efficacy in non-CNS tumor models (non-CNS tumor models): significant antitumor efficacy
- toxicity in experimental animals (non-CNS tumor models; multiple oral dosing, mono- or combinatorial therapies, other tumor models): no toxicity
- viability of BV2 microglial cells (toxicity) (BV2 microglial cells): not toxic
- viability of primary murine microglia (toxicity) (primary murine microglia): not toxic
- arginine concentration in the blood plasma [2]: increase of arginine concentration
- arginine concentration in the brain [2]: increase of arginine concentration
- IC50 (recombinant human ARG1): 28 nM
- OAT-1746 in the brain (crossing of the BBB) [3]: detected in the brain extracts
- IC50 (recombinant human ARG2): 49 nM
